Article PMC10060287 (Pharmacological Reports, 2023)
“Also recorded” adds a separate entry of the source. Ends that are not written are not given here.

How the values were obtained:
µ-opioid receptor (µOR) [1] = target: T1, µ-opioid receptor (µOR) (Rattus norvegicus, UniProt P33535); type: binding, Wistar rat (brain membranes)
µ-opioid receptor (µOR) [2] = target: T1, µ-opioid receptor (µOR); assay: Saturation binding of [^3H]DAMGO with varying G-peptide concentrations; type: Wistar rat (brain membranes)

T1 sequence (P33535 whole entry): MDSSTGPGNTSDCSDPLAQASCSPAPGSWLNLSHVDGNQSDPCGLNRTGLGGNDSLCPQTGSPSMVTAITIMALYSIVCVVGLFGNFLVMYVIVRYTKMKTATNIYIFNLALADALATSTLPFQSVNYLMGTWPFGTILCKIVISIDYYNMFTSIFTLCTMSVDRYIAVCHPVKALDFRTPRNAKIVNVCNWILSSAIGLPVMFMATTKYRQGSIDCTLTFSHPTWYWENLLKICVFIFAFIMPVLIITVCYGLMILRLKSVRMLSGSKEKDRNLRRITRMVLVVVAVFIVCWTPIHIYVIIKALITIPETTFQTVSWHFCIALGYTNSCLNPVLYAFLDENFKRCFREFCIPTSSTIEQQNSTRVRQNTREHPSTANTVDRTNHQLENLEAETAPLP

## IIKNNLKDCGLF-NH2 [G-peptide]
µ-opioid receptor (µOR) [1]
  G-peptide concentration needed for characteristic shift in the binding curve of morphine: ≥ 100 µM
  affinity of the peptide: micromolar level; also recorded: micromolar range
  allosteric modulation of µOR: binds the µ-opioid receptor and acts as an allosteric modulator
  dose dependence of G-peptide effect on morphine binding: increases µOR affinity for its agonist morphine in a dose-dependent way
  orthosteric binding of the G-peptide: no significant orthosteric coupling to µOR; also recorded: inactive through the orthosteric binding site of µOR; also recorded: did not interact directly with the orthosteric binding site
µ-opioid receptor (µOR) [2]; saturation experiments for [H^3]DAMGO
  affinity increase caused by the G-peptide: dose dependency of the affinity increase
µ-opioid receptor (µOR) [2]; saturation experiments with radio-ligand
  lowest G-peptide concentration affecting the binding: 10 µM
µ-opioid receptor (µOR) [2]; two sets of experiments, G-peptide 0.01 to 25 µM and 0.01 to 200 µM
  Bmax of DAMGO upon adding G-peptide: concentration-dependent decrease in the Bmax value of DAMGO
µ-opioid receptor (µOR) [2]; varying concentrations of the G-peptide
  equilibrium dissociation constant Kd and Bmax of DAMGO upon adding G-peptide: change in both the equilibrium dissociation constant Kd and Bmax
